Target: CpomOrco (Cydia pomonella, UniProt H9A5M2)
Experiment: Calcium imaging of HEK293T cells expressing homomeric CpomOrco
Type: cell-based
Settings: peak amplitudes normalized to response at 1000 μM agonist, read-out: [A]1/2 half-effective concentration of agonist, calcium response
Description: HEK293T cells were grown in HEK cell media [Dulbecco’s modified Eagle’s medium containing 10% fetal bovine serum (MP Biomedicals, Solon, OH, USA), 2.0 mM L-glutamine, and 100 μg/mL Penicillin/Streptomycin (Invitrogen)] at 37 °C and 5% CO2. To test transient expression of CpomORs for calcium imaging or patch-clamp recording experiments, 35-mm petri dishes containing semi-confluent HEK293T cells were transiently transfected. To transfect cells with CpomOrco, we used 1.0 μg of pcDNA5/TO/CpomOrco DNA. In order to promote expression of the OR[51], we used double aliquots for pcDNA5/TO/CpomOR DNAs (2.0 μg), combined with 1.0 μg of pcDNA5/TO/CpomOrco for co-transfections (CpomOrco + ORs). […]
Fluorescence imaging was performed using Imaging Workbench 6 software (INDEC BioSystems, Santa Clara, CA, USA). Each cell was assigned a region of interest (ROI) and changes in fluorescence intensity within each ROI were measured and expressed as the fractional change in fluorescence intensity (dF) or in some cases as dF/F0 where F0 is the basal fluorescence level before agonist application. […] Continuous traces of multiple responses were compensated for slow drift of the baseline fluorescence when necessary. […]

Sequence of CpomOrco (H9A5M2 entry or part of it): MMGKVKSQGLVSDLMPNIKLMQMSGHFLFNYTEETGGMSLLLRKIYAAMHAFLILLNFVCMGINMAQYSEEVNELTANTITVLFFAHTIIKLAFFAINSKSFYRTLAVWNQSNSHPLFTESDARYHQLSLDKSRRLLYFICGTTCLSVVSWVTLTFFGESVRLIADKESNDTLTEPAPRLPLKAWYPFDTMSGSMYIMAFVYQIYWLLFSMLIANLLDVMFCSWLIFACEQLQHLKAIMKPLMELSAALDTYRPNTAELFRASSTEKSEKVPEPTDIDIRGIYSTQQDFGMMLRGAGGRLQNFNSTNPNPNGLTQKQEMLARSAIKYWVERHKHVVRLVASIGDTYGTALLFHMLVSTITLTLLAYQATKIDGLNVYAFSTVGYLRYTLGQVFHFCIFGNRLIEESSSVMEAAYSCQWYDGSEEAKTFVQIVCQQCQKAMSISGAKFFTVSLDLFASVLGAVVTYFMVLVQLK

## CCn1c(SCC(=O)Nc2ccc(C(C)C)cc2)nnc1-c1ccncc1 [VUAA3, acetamide,2-[[4-ethyl-5-(4-pyridinyl)-4H-1,2,4-triazol-3-yl]thio]-N-[4-(1-methylethyl)phenyl]-]
  EC50: ~362 µM
